Laboratory results published in US6346602B1, “Peptide mimics of the cytokine receptor common γ chain and methods and compositions for making and using the same” (Thomas Jefferson University, priority 1997, dated 2002).

System: IL-4 induced proliferation of CTLL cell line
Assay: CTLL Proliferation Assay (IL-4)
Type: cell-based, murine
Settings: CTLL cells, exogenous IL-4 (mIL-4), titred peptide; FIGS. 1A-1D, 2
Procedure: CTLL Proliferation Assay: The murine IL-2- and IL-4-responsive CTLL cell line was used to assess the ability of the gamma chain peptides to inhibit the binding of these cytokines to their respective receptors. The cell line proliferates in responses to exogenously added cytokine and inhibition of this proliferation by the peptides would be a result of blocking the cytokines from interacting with their receptors. Briefly, 5000 CTLL cells are added to the wells of a 96 well microtitre plate. Either 10 U/ml r-mIL-2 or 1 ng/ml r-mIL-4 are added to these wells along with titred amounts of the indicated peptides. Cultures are incubated at 37° C. for 24 hours and pulsed with ^3H-TdR for the final 6 hours to indicate amount of proliferation. Wells containing no peptide are deemed the positive response and well containing no peptide and no cytokine are deemed the background (bkg) proliferation. A percent response is calculated as follows: (CPM experimental-CPM bkg)/CPM positive response-CPM bkg). All data are expressed in this manner.

| Sequence | effect on cell proliferation in response to exogenous IL-4 |
| --- | --- |
| CLNLQNLC [gamma-5] | inhibits cell proliferation |
| CNHEPRFLSC [gamma-4] | inhibits cell proliferation |
